# Measured values: ChEMBL document CHEMBL6103592, “Discovery of novel thiazole-pleuromutilin derivatives with potent antibacterial activity” (Eur J Med Chem, 2025)
# The source made the active and inactive calls. No cut-off for these calls is given here.
# Key:
# [1] = Acute toxicity in rat assessed as absolute liver weight at 2000 mg/kg, po measured for 7 days (reference value: 8.43 +/- 0.43 g); format: organism-based; settings: in vivo, 168 h, time 7 day
# HepG2 = experiment: Cytotoxicity against human HepG2 cells assessed as cell viability at 200 micromol/L incubated for 24 hrs by CCK-8 assay relative to control; format: functional; settings: HepG2, 24 h, dose 200 µmol/L, read-out: Activity
# [2] = Acute toxicity in rat assessed as relative spleen weight at 2000 mg/kg, po administered for 7 days followed by readministration after 7 days and measured at 14 days (reference value: 0.27 +/- 0.02 %); format: organism-based; settings: in vivo, 336 h, time 14 day
# Staphylococcus aureus [3] = experiment: Antibacterial activity against methicillin resistant Staphylococcus aureus; format: functional
# Staphylococcus aureus [4] = experiment: (§1) Antibacterial efficacy against methicillin-resistant Staphylococcus aureus ATCC 43300 infected in cyclophosphamide-induced neutropenic systemic infection Kunming mouse model assessed as effect on survival rate at 20 mg/kg, iv pretreated with cyclophosphamide for 1 hr followed by compound addition and measured after 7 days; format: functional, organism-based; settings: time 7.0 day
# [5] = Acute toxicity in rat assessed as reduction in food intake at 2000 mg/kg, po measured at 24 hrs; format: organism-based; settings: in vivo
# [6] = Acute toxicity in rat assessed as absolute kidney weight at 2000 mg/kg, po measured for 7 days (reference value: 1.60 +/- 0.16 g); format: organism-based; settings: in vivo, 168 h, time 7 day
# [7] = Acute toxicity in rat assessed as degeneration of glandular epithelial cells at 2000 mg/kg, po measured for 14 days by H and E staining based analysis; format: organism-based; settings: in vivo, 336 h, time 14 day
# [8] = Acute toxicity in rat assessed as absolute lung weight at 2000 mg/kg, po measured for 7 days (reference value: 1.12 +/- 0.07g); format: organism-based; settings: in vivo, 168 h, time 7 day
# [9] = Acute toxicity in po dosed rat assessed as lethal dose measured for 14 days […]; format: organism-based; settings: in vivo, time 14 day
# [10] = Acute toxicity in rat assessed as absolute uterus weight at 2000 mg/kg, po administered for 7 days followed by readministration after 7 days and measured at 14 days (reference value: 0.52 +/- 0.18 g); format: organism-based; settings: in vivo, 336 h, time 14 day
# Staphylococcus aureus [11] = experiment: Bactericidal activity against methicillin-resistant Staphylococcus aureus ATCC 43300 at 1 times MIC incubated upto 24 hrs by time-kill assay; format: functional, organism-based
# [12] = Acute toxicity in rat assessed as absolute spleen weight at 2000 mg/kg, po measured for 7 days (reference value: 0.53 +/- 0.04g); format: organism-based; settings: in vivo, 168 h, time 7 day
# [13] = Acute toxicity in rat assessed as pathological changes in heart at 2000 mg/kg, po measured for 14 days; format: organism-based; settings: in vivo, 336 h, time 14 day
# [14] = Acute toxicity in rat assessed as reduction in food intake at 2000 mg/kg, po measured for 14 days; format: organism-based; settings: in vivo, 336 h, time 14 day
# [15] = Acute toxicity in rat assessed as necrosis of glandular epithelial cells at 2000 mg/kg, po measured for 14 days by H and E staining based analysis; format: organism-based; settings: in vivo, 336 h, time 14 day
# Staphylococcus aureus [16] = experiment: Antibacterial activity against methicillin-resistant Staphylococcus aureus ATCC 43300 assessed as post antibiotic effect at 8 times MIC measured after 1 hr; format: functional
# Staphylococcus aureus [17] = experiment: Antibacterial activity against Staphylococcus aureus ATCC 25923 assessed as inhibition of visible bacterial growth incubated for 24 hrs by CLSI based broth microdilution method; format: functional
# [18] = Acute toxicity in rat assessed as decrease in locomotor activity at 2000 mg/kg, po measured for 14 days; format: organism-based; settings: in vivo, 336 h, time 14 day
# Staphylococcus aureus [19] = experiment: as §1, with “inflammatory cell infiltration in lung” for “effect on survival rate”, “5” for “7”, “days by light microscopic analysis” for “days”; format: functional, organism-based; settings: time 5.0 day
# Staphylococcus aureus [20] = experiment: as §1, with “reduction in bacterial load in lung” for “effect on survival rate”, “5” for “7”; format: functional; settings: time 5 day
# Staphylococcus aureus [21] = experiment: Antibacterial activity against methicillin-resistant Staphylococcus aureus ATCC 43300 assessed as post antibiotic effect at 2 times MIC measured after 1 hr; format: functional
# [22] = Acute toxicity in rat assessed as relative liver weight at 2000 mg/kg, po measured for 7 days (reference value: 4.36 +/- 0.23 %); format: organism-based; settings: in vivo, 168 h, time 7 day
# Staphylococcus aureus [23] = experiment: Antibacterial activity against methicillin-resistant Staphylococcus aureus ATCC 43300 assessed as post antibiotic effect at 1 times MIC measured after 1 hr; format: functional
# [24] = Acute toxicity in rat assessed as relative liver weight at 2000 mg/kg, po administered for 7 days followed by readministration after 7 days and measured at 14 days (reference value: 4.36 +/- 0.23 %); format: organism-based; settings: in vivo, 336 h, time 14 day
# [25] = Acute toxicity in rat assessed as absolute lung weight at 2000 mg/kg, po administered for 7 days followed by readministration after 7 days and measured at 14 days (reference value: 1.12 +/- 0.07 g); format: organism-based; settings: in vivo, 336 h, time 14 day
# [26] = Acute toxicity in rat assessed as absolute kidney weight at 2000 mg/kg, po administered for 7 days followed by readministration after 7 days and measured at 14 days (reference value: 1.60 +/- 0.16 g); format: organism-based; settings: in vivo, 336 h, time 14 day
# [27] = Acute toxicity in rat assessed as pathological changes in kidney at 2000 mg/kg, po measured for 14 days; format: organism-based; settings: in vivo, 336 h, time 14 day
# [28] = Acute toxicity in rat assessed as absolute liver weight at 2000 mg/kg, po administered for 7 days followed by readministration after 7 days and measured at 14 days (reference value: 8.43 +/- 0.43 g); format: organism-based; settings: in vivo, 336 h, time 14 day
# [29] = Acute toxicity in rat assessed as relative heart weight at 2000 mg/kg, po measured for 7 days (reference value: 0.40 +/- 0.06%); format: organism-based; settings: in vivo, 168 h, time 7 day
# Staphylococcus aureus [30] = experiment: Antibacterial activity against methicillin-resistant Staphylococcus aureus ATCC 43300 assessed as post antibiotic effect at 4 times MIC measured after 1 hr; format: functional
# [31] = Acute toxicity in rat assessed as relative spleen weight at 2000 mg/kg, po measured for 7 days (reference value: 0.27 +/- 0.02%); format: organism-based; settings: in vivo, 168 h, time 7 day
# Enterococcus faecalis = experiment: Antibacterial activity against Enterococcus faecalis assessed as inhibition of visible bacterial growth incubated for 24 hrs by CLSI based broth microdilution method; format: functional
# Escherichia coli = experiment: Antibacterial activity against Escherichia coli ATCC 25922 assessed as inhibition of visible bacterial growth incubated for 24 hrs by CLSI based broth microdilution method; format: functional
# Staphylococcus aureus [32] = experiment: Bactericidal activity against methicillin-resistant Staphylococcus aureus ATCC 43300 at 1 to 6 times MIC incubated upto 24 hrs by time-kill assay; format: functional, organism-based
# [33] = Acute toxicity in rat assessed as relative lung weight at 2000 mg/kg, po measured for 7 days (reference value: 0.58 +/- 0.03%); format: organism-based; settings: in vivo, 168 h, time 7 day
# [34] = Acute toxicity in rat assessed as relative heart weight at 2000 mg/kg, po administered for 7 days followed by readministration after 7 days and measured at 14 days (reference value: 0.40 +/- 0.06 %); format: organism-based; settings: in vivo, 336 h, time 14 day
# Staphylococcus aureus [35] = experiment: Drug resistance, ratio of MIC for methicillin-resistant Staphylococcus aureus ATCC 43300 after 21 passages to MIC for methicillin-resistant Staphylococcus aureus ATCC 43300 during first exposure; format: functional
# Staphylococcus aureus [36] = experiment: Bactericidal activity against methicillin-resistant Staphylococcus aureus ATCC 43300 assessed as increase in colony forming unit count at 1 times MIC incubated after 8 hrs by time-kill assay; format: functional, organism-based
structure (smiles),measurement,setting,value
C=C[C@]1(C)C[C@@H](OC(=O)CSc2nc(OC(=O)c3ccc(C(C)(C)C)cc3)cs2)[C@]2(C)[C@H](C)CC[C@]3(CCC(=O)[C@H]32)[C@@H](C)[C@@H]1O,Activity,[1],8.5 g
same,viability at 200 µM,HepG2,94.3%
same,Activity,[2],0.25%
same,MIC,Staphylococcus aureus [3],0.5 µg/mL
same,Activity,Staphylococcus aureus [4],Active
same,Activity,[5],Non-toxic
same,Activity,[6],1.54 g
same,Activity,[7],Non-toxic
same,Activity,[8],1.13 g
same,LD50 at 336 h,[9],2000 mg/kg
same,Activity,[10],0.5 g
same,Activity,Staphylococcus aureus [11],Active
same,Activity,[12],0.53 g
same,Activity,[13],Non-toxic
same,Activity,[14],Toxic
same,Activity,[15],Non-toxic
same,PAE,Staphylococcus aureus [16],2.27 h
same,MIC,Staphylococcus aureus [17],0.25 µg/mL
same,Activity,[18],Non-toxic
same,Activity,Staphylococcus aureus [19],Active
same,Activity,Staphylococcus aureus [20],0.9 log10CFU
same,PAE,Staphylococcus aureus [21],1.09 h
same,Activity,[22],4.34%
same,PAE,Staphylococcus aureus [23],0.801 h
same,Activity,[24],3.97%
same,Activity,[25],1.28 g
same,Activity,[26],1.63 g
same,Activity,[27],Non-toxic
same,Activity,[28],8.57 g
same,Activity,[29],0.39%
same,PAE,Staphylococcus aureus [30],1.85 h
same,Activity,[31],0.28%
same,MIC,Enterococcus faecalis,> 32 µg/mL
same,MIC,Escherichia coli,> 32 µg/mL
same,Activity,Staphylococcus aureus [32],Dose-dependent-effect
same,Activity,[33],0.58%
same,Activity,[34],0.36%
same,Ratio,Staphylococcus aureus [35],16
same,Activity,Staphylococcus aureus [36],Active
